In PubChem BioAssay AID1963843 (Molecular Pharmacology Branch, DTP, NCI, 2024):

Test system: 616215-338-R-J1-PDC complex spheroid viability
Assay: Anticancer human tumor 616215-338-R-J1-PDC patient-derived colon adenocarcinoma cell line growth inhibition [POLQ]
Details: for IC50: curve of first compound; for viability, T/C: stronger effect = lower value
Protocol: Multicellular complex tumor spheroid response to Polymerase (POL) inhibitors (novobiocin, ART-558, RP6685) in combination with a variety of drugs and investigational agents in selected tumor cell lines
The POL inhibitors (novobiocin, ART-558, and RP6685) were evaluated both individually and in combination with standard of care and investigational anticancer small molecules within a complex spheroid model of solid tumors. . Complex spheroids include a stromal component modeled by human endothelial cells (HUVEC) and fibroblasts modeled by human mesenchymal stem cells (MSCs). The concentration ranges selected for each drug and investigational agent were based upon clinically achievable concentrations if the clinical Cmax of the agent was known.
Compounds. The drugs and investigational agents: novobiocin (NSC847541), ART-558 (NSC835418), RP-6685 (NSC848927), peposertib (NSC802822), ceralasertib (NSC780249), elimusertib (NSC800525), camonsertib (NSC841442), AZD-1390 (NSC803789), olaparib (NSC753686), talazoparib (NSC767125), rucaparib (NSC756644), sotorasib (NSC818433), MRTX-1133 (NSC836407), SN-38 (NSC673596), topotecan (NSC609699), epotoside (NSC141540), doxorubicin (NSC123127), gemcitabine (NSC613327), 5-fluorouracil (NSC19893), paclitaxel (NSC125973), vemurafenib (NSC761431), MSA-2 (NSC828583), SN-011 (NSC837082), adavosertib (NSC754352), prexasertib (NSC758257), carboplatin (NSC241240) and oxaliplatin (NSC266046), were obtained from the National Cancer Institute (NCI) Developmental Therapeutics Program Chemical Repository (21). The FDA-approved anticancer drug set is available from the Developmental Therapeutics Program at https://dtp.cancer.gov/organization/dscb/obtaining/. […] The stock solutions were prepared in dimethyl sulfoxide (DMSO, Sigma-Aldrich, St. Louis, MO, cat. D2650), except for the platinum compounds which were prepared in saline (Quality Biological, Gaithersburg, MD, cat. 114-055-101), at 800-fold the tested concentration and stored at -70 degrees C prior to their use. All drugs and investigational agents were tested over a range starting from a high concentration at or near the clinical Cmax and decreasing in half-log increments. If the clinical Cmax for an agent had not been determined, the highest concentration tested was 10 microM, except for SN-38, which was tested at a high concentration of 1 microM.
Cell Culture. All cells were maintained in an incubator at 37 degrees C and 5% CO2 with 95% humidity. The PDC lines were cultured according to standard operating procedures established by the NCI PDMR (https://pdmr.cancer.gov). Table 3 of the manuscript, lists the cell lines along with the number of the three cell types plated to form the mct-spheroids and media for tumor cell growth. After thawing, all PDC lines, except 997537-175-T-J1-PDC and 415267-285-R-J2-PDC, were cultured in Matrigel-coated flasks prepared with a working solution of 1X Ham's F-12 nutrient mix, without supplementation (Thermo Fisher Scientific, cat. 11765054), 100 U/mL penicillin-streptomycin (Thermo Fisher Scientific, cat. 15140122), and 2.5% Matrigel (Corning Inc., Corning, NY, cat. 354248) for the first three passages. The two PDC lines 997537-175-T-J1-PDC and 415267-285-R-J2-PDC were cultured on uncoated flasks. The 857933-349-R-J2-PDC line was cultured in 6C/Colon 1B media containing advanced DMEM/F-12 (Thermo Fisher Scientific, cat. 12634028), 10 mM HEPES (Thermo Fisher Scientific, cat. 15630080), 1X GlutaMAX supplement (Thermo Fisher Scientific, cat. 35050061), 0.1 mg/mL primocin (InvivoGen, San Diego, CA, cat. ant-pm-2), 10% defined fetal bovine serum, heat inactivated (HyClone Laboratories Inc., Logan, UT, cat. SH30070.03HI), 50% L-WRN conditioned media (ATCC, cat. CRL-3276), 1.25 mM N-Acetyl-L-cysteine (Sigma-Aldrich, cat. A9165), 10 mM nicotinamide (Sigma-Aldrich, cat. N0636), 1X B-27 supplement (Thermo Fisher Scientific, cat. 17504044), 1X N-2 supplement (Thermo Fisher Scientific, cat. […]

[1] = second compound 0.0316 µM, first compound 0.0316 µM
[2] = second compound 0.0316 µM, first compound 0.1 µM
[3] = second compound 0.0316 µM, first compound 0.316 µM
[4] = second compound 0.0316 µM, first compound 1 µM
[5] = second compound 0.0316 µM, first compound 3.16 µM
[6] = second compound 0.0316 µM, first compound 10 µM
[7] = second compound 0.1 µM, first compound 0.0316 µM
[8] = second compound 0.1 µM, first compound 0.1 µM
[9] = second compound 0.1 µM, first compound 0.316 µM
[10] = second compound 0.1 µM, first compound 1 µM
[11] = second compound 0.1 µM, first compound 3.16 µM
[12] = second compound 0.1 µM, first compound 10 µM
[13] = second compound 0.316 µM, first compound 0.0316 µM
[14] = second compound 0.316 µM, first compound 0.1 µM
[15] = second compound 0.316 µM, first compound 0.316 µM
[16] = second compound 0.316 µM, first compound 1 µM
[17] = second compound 0.316 µM, first compound 3.16 µM
[18] = second compound 0.316 µM, first compound 10 µM
[19] = second compound 1 µM, first compound 0.0316 µM
[20] = second compound 1 µM, first compound 0.1 µM
[21] = second compound 1 µM, first compound 0.316 µM
[22] = second compound 1 µM, first compound 1 µM
[23] = second compound 1 µM, first compound 3.16 µM
[24] = second compound 1 µM, first compound 10 µM
[25] = second compound 3.16 µM, first compound 0.0316 µM
[26] = second compound 3.16 µM, first compound 0.1 µM
[27] = second compound 3.16 µM, first compound 0.316 µM
[28] = second compound 3.16 µM, first compound 1 µM
[29] = second compound 3.16 µM, first compound 3.16 µM
[30] = second compound 3.16 µM, first compound 10 µM
[31] = second compound 10 µM, first compound 0.0316 µM
[32] = second compound 10 µM, first compound 0.1 µM
[33] = second compound 10 µM, first compound 0.316 µM
[34] = second compound 10 µM, first compound 1 µM
[35] = second compound 10 µM, first compound 3.16 µM
[36] = second compound 10 µM, first compound 10 µM
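Also: spheroids exposed to compounds for one week before readout.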
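For viability, T/C in this document: percent viability relative to DMSO vehicle wells taken as 100%.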

With CCc1cc2c(N3CCc4c(cc(Cn5ccnc5)cc4-c4cn(C)nc4C(F)(F)F)C3=O)ccnc2c(OC)n1 + Nc1ccc(C#CCN(C(=O)Cc2ncc(C(F)(F)F)cc2C(F)(F)F)c2ccc(F)cc2)nn1 as the molecule, how does the IC50 (second compound 0.0316 µM) read?
Its IC50 is greater than 10 µM.

And the IC50 (second compound 0.1 µM)?
The IC50 was 6.52 µM.

What about the IC50 (second compound 0.316 µM) of the same molecule?
The IC50 was 5.19 µM.

What about the IC50 (second compound 1 µM) of the same molecule?
The IC50 was 3.07 µM.

And the IC50 (second compound 3.16 µM)?
Its IC50 is 4.4 µM.

What about the IC50 (second compound 10 µM) of the same molecule?
Its IC50 is 2.69 µM.

What about the viability, T/C [1] of the same molecule?
Its viability, T/C is 118%.

And the viability, T/C [2]?
Its viability, T/C is 111%.

What about the viability, T/C [3] of the same molecule?
The viability, T/C was 95.6%.

What about the viability, T/C [4] of the same molecule?
Its viability, T/C is 56.6%.

What about the viability, T/C [5] of the same molecule?
The viability, T/C was 54.1%.

And the viability, T/C [6]?
Its viability, T/C is 49.1%.

What about the viability, T/C [7] of the same molecule?
The viability, T/C was 117%.

What about the viability, T/C [8] of the same molecule?
The viability, T/C was 120%.

And the viability, T/C [9]?
The viability, T/C was 88.8%.

And the viability, T/C [10]?
Its viability, T/C is 66.8%.

And the viability, T/C [11]?
The viability, T/C was 55.8%.

And the viability, T/C [12]?
Its viability, T/C is 45.4%.

And the viability, T/C [13]?
Its viability, T/C is 121%.

And the viability, T/C [14]?
The viability, T/C was 113%.

What about the viability, T/C [15] of the same molecule?
Its viability, T/C is 98.9%.

And the viability, T/C [16]?
The viability, T/C was 64.7%.

And the viability, T/C [17]?
Its viability, T/C is 53.6%.

And the viability, T/C [18]?
The viability, T/C was 46.9%.

What about the viability, T/C [19] of the same molecule?
The viability, T/C was 111%.

What about the viability, T/C [20] of the same molecule?
Its viability, T/C is 107%.

What about the viability, T/C [21] of the same molecule?
The viability, T/C was 94.9%.

What about the viability, T/C [22] of the same molecule?
The viability, T/C was 56.2%.

And the viability, T/C [23]?
The viability, T/C was 63.8%.

And the viability, T/C [24]?
The viability, T/C was 37.3%.

What about the viability, T/C [25] of the same molecule?
Its viability, T/C is 115%.

What about the viability, T/C [26] of the same molecule?
Its viability, T/C is 110%.

And the viability, T/C [27]?
Its viability, T/C is 98%.

And the viability, T/C [28]?
Its viability, T/C is 70.8%.

What about the viability, T/C [29] of the same molecule?
Its viability, T/C is 56.4%.

What about the viability, T/C [30] of the same molecule?
Its viability, T/C is 40.4%.

What about the viability, T/C [31] of the same molecule?
The viability, T/C was 100%.

What about the viability, T/C [32] of the same molecule?
Its viability, T/C is 104%.

And the viability, T/C [33]?
Its viability, T/C is 95.3%.

What about the viability, T/C [34] of the same molecule?
The viability, T/C was 68.4%.

What about the viability, T/C [35] of the same molecule?
The viability, T/C was 48.6%.

What about the viability, T/C [36] of the same molecule?
Its viability, T/C is 40.4%.

How did the IC50 (second compound 0.0316 µM) turn out when O=C(c1cc(Cc2n[nH]c(=O)c3ccccc23)ccc1F)N1CCN(C(=O)C2CC2)CC1 + Nc1ccc(C#CCN(C(=O)Cc2ncc(C(F)(F)F)cc2C(F)(F)F)c2ccc(F)cc2)nn1 was run?
The IC50 was greater than 10 µM.

What about the IC50 (second compound 0.1 µM) of the same molecule?
The IC50 was greater than 10 µM.

And the IC50 (second compound 0.316 µM)?
The IC50 was 8.94 µM.

And the IC50 (second compound 1 µM)?
Its IC50 is greater than 10 µM.

What about the IC50 (second compound 3.16 µM) of the same molecule?
The IC50 was greater than 10 µM.

And the IC50 (second compound 10 µM)?
The IC50 was 9.49 µM.

What about the viability, T/C [1] of the same molecule?
Its viability, T/C is 102%.

What about the viability, T/C [2] of the same molecule?
Its viability, T/C is 99%.

What about the viability, T/C [3] of the same molecule?
The viability, T/C was 113%.

What about the viability, T/C [4] of the same molecule?
The viability, T/C was 99.9%.

What about the viability, T/C [5] of the same molecule?
The viability, T/C was 88.5%.

What about the viability, T/C [6] of the same molecule?
The viability, T/C was 55.5%.

And the viability, T/C [7]?
The viability, T/C was 110%.

And the viability, T/C [8]?
Its viability, T/C is 94.7%.

What about the viability, T/C [9] of the same molecule?
Its viability, T/C is 104%.

What about the viability, T/C [10] of the same molecule?
Its viability, T/C is 94.1%.

What about the viability, T/C [11] of the same molecule?
The viability, T/C was 88.6%.

What about the viability, T/C [12] of the same molecule?
The viability, T/C was 66.9%.

And the viability, T/C [13]?
The viability, T/C was 105%.

What about the viability, T/C [14] of the same molecule?
The viability, T/C was 103%.

And the viability, T/C [15]?
The viability, T/C was 92.6%.

What about the viability, T/C [16] of the same molecule?
Its viability, T/C is 88.3%.

And the viability, T/C [17]?
Its viability, T/C is 102%.

And the viability, T/C [18]?
The viability, T/C was 44.8%.

And the viability, T/C [19]?
The viability, T/C was 99.8%.

What about the viability, T/C [20] of the same molecule?
The viability, T/C was 97.6%.

And the viability, T/C [21]?
The viability, T/C was 94.4%.

And the viability, T/C [22]?
The viability, T/C was 103%.

And the viability, T/C [23]?
Its viability, T/C is 80%.

What about the viability, T/C [24] of the same molecule?
Its viability, T/C is 55%.

And the viability, T/C [25]?
The viability, T/C was 112%.

And the viability, T/C [26]?
Its viability, T/C is 107%.

What about the viability, T/C [27] of the same molecule?
The viability, T/C was 99.6%.

What about the viability, T/C [28] of the same molecule?
Its viability, T/C is 93.3%.

And the viability, T/C [29]?
The viability, T/C was 98.1%.

And the viability, T/C [30]?
The viability, T/C was 54.1%.

What about the viability, T/C [31] of the same molecule?
Its viability, T/C is 96.3%.

What about the viability, T/C [32] of the same molecule?
Its viability, T/C is 88.7%.

And the viability, T/C [33]?
The viability, T/C was 80.7%.

What about the viability, T/C [34] of the same molecule?
The viability, T/C was 79.7%.

And the viability, T/C [35]?
Its viability, T/C is 81.3%.

What about the viability, T/C [36] of the same molecule?
The viability, T/C was 47.9%.
